Laboratory results taken from ChEMBL document CHEMBL1152853, “Synthesis and biological evaluation of novel symmetry bis-enediynes” (2009).
Active and inactive are the calls of the source. The calls are words filed in the database; no cut-off is given here.

What was measured:
[1] = tested on: LOX IMVI; assay: Cytotoxicity against human LOXIMVI cells; format: functional
[2] = tested on: MDA-MB-231; assay: Cytotoxicity against human MDA-MB-231 cells; format: functional
[3] = tested on: COLO 205; assay: Cytotoxicity against human COLO205 cells; format: functional
[4] = tested on: SK-OV-3; assay: Cytotoxicity against human SKOV3 cells; format: functional
[5] = tested on: K562; assay: Cell cycle arrest in human K562 cells assessed as accumulation in Sub-G1 phase at 20 uM after 24 hrs by flow cytometry analysis; format: functional
[6] = tested on: K562; assay: Cell cycle arrest in human K562 cells assessed as accumulation in S phase at 50 uM after 24 hrs by flow cytometry analysis; format: functional
[7] = Cytotoxicity against human […] cells; format: functional
[8] = tested on: K562; assay: Inhibition of G2/M phase related Cyclin B protein expression in human K562 cells at 20 uM by Western blotting analysis; format: functional, cell-based
[9] = tested on: UO-31; assay: Cytotoxicity against human UO31 cells; format: functional
[10] = tested on: OVCAR-4; assay: Cytotoxicity against human OVCAR4 cells; format: functional
[11] = tested on: OVCAR-5; assay: Cytotoxicity against human OVCAR5 cells; format: functional
[12] = tested on: K562; assay: Cell cycle arrest in human K562 cells assessed as accumulation in G0/G1 phase at 50 uM after 24 hrs by flow cytometry analysis; format: functional
[13] = tested on: K562; assay: Cell cycle arrest in human K562 cells assessed as accumulation in S phase at 20 uM after 24 hrs by flow cytometry analysis; format: functional
[14] = tested on: K562; assay: Inhibition of G2/M phase related Cyclin A protein expression in human K562 cells at 20 uM by Western blotting analysis; format: functional, cell-based
[15] = tested on: NCI-H226; assay: Cytotoxicity against human NCI-H226 cells; format: functional
[16] = tested on: EKVX; assay: Cytotoxicity against human EKVX cells; format: functional
[17] = tested on: NCI-H23; assay: Cytotoxicity against human NCI-H23 cells; format: functional
[18] = tested on: UACC-62; assay: Cytotoxicity against human UACC62 cells; format: functional
[19] = tested on: HL-60; assay: Cytotoxicity against human HL60 cells; format: functional
[20] = tested on: HCT-116; assay: Cytotoxicity against human HCT116 cells; format: functional
[21] = tested on: KM12; assay: Cytotoxicity against human KM12 cells; format: functional
[22] = tested on: OVCAR-3; assay: Cytotoxicity against human OVCAR-3 cells; format: functional
[23] = tested on: K562; assay: Cell cycle arrest in human K562 cells assessed as accumulation in Sub-G1 phase at 10 uM after 24 hrs by flow cytometry analysis; format: functional
[24] = tested on: ACHN; assay: Cytotoxicity against human ACHN cells; format: functional
[25] = tested on: K562; assay: Cell cycle arrest in human K562 cells assessed as accumulation in G0/G1 phase at 20 uM after 24 hrs by flow cytometry analysis; format: functional
[26] = tested on: K562; assay: Cell cycle arrest in human K562 cells assessed as accumulation in G2/M phase at 50 uM after 24 hrs by flow cytometry analysis; format: functional
[27] = tested on: K562; assay: Cytotoxicity against human K562 cells; format: functional
[28] = tested on: NCI-H522; assay: Cytotoxicity against human NCI-H522 cells; format: functional
[29] = tested on: MOLT-4; assay: Cytotoxicity against human MOLT4 cells; format: functional
[30] = tested on: RXF 393; assay: Cytotoxicity against human […] cells; format: functional
[31] = tested on: SF-539; assay: Cytotoxicity against human SF539 cells; format: functional
[32] = tested on: CCRF-CEM; assay: Cytotoxicity against human CCRF-CEM cells; format: functional
[33] = tested on: K562; assay: Cell cycle arrest in human K562 cells assessed as accumulation in G2/M phase at 10 uM after 24 hrs by flow cytometry analysis; format: functional
[34] = tested on: T47D; assay: Cytotoxicity against human T47D cells; format: functional
[35] = tested on: DU-145; assay: Cytotoxicity against human DU145 cells; format: functional
[36] = tested on: MDA-MB-435; assay: Cytotoxicity against human MDA-MB-435 cells; format: functional
[37] = tested on: UACC-257; assay: Cytotoxicity against human UACC257 cells; format: functional
[38] = tested on: PC-3; assay: Cytotoxicity against human PC3 cells; format: functional
[39] = tested on: M14; assay: Cytotoxicity against human M14 cells; format: functional
[40] = tested on: NCI/ADR-RES; assay: Cytotoxicity against human NCI/ADR-RES cells; format: functional
[41] = tested on: HCC 2998; assay: Cytotoxicity against human HCC2998 cells; format: functional
[42] = tested on: HCT-15; assay: Cytotoxicity against human HCT15 cells; format: functional
[43] = tested on: SW-620; assay: Cytotoxicity against human SW620 cells; format: functional
[44] = tested on: CAKI-1; assay: Cytotoxicity against human Caki1 cells; format: functional
[45] = tested on: K562; assay: Cell cycle arrest in human K562 cells assessed as accumulation in Sub-G1 phase at 50 uM after 24 hrs by flow cytometry analysis; format: functional
[46] = tested on: HOP-62; assay: Cytotoxicity against human HOP62 cells; format: functional
[47] = tested on: BT-549; assay: Cytotoxicity against human BT549 cells; format: functional
[48] = tested on: SNB-19; assay: Cytotoxicity against human SNB19 cells; format: functional
[49] = tested on: SF-295; assay: Cytotoxicity against human SF295 cells; format: functional
[50] = tested on: K562; assay: Cell cycle arrest in human K562 cells assessed as accumulation in S phase at 10 uM after 24 hrs by flow cytometry analysis; format: functional
[51] = tested on: U-251; assay: Cytotoxicity against human U251 cells; format: functional
[52] = tested on: NCI-H460; assay: Cytotoxicity against human NCI-H460 cells; format: functional
[53] = tested on: SN12C; assay: Cytotoxicity against human SN12C cells; format: functional
[54] = tested on: SK-MEL-28; assay: Cytotoxicity against human SK-MEL-28 cells; format: functional
[55] = tested on: HT-29; assay: Cytotoxicity against human HT-29 cells; format: functional
[56] = tested on: SK-MEL-5; assay: Cytotoxicity against human SK-MEL-5 cells; format: functional
[57] = tested on: MCF7; assay: Cytotoxicity against human MCF7 cells; format: functional
[58] = tested on: SNB-75; assay: Cytotoxicity against human SNB75 cells; format: functional
[59] = tested on: 786-0; assay: Cytotoxicity against human 786-0 cells; format: functional
[60] = Cytotoxicity against human Hs 578T cells; format: functional
[61] = tested on: K562; assay: Cell cycle arrest in human K562 cells assessed as accumulation in G0/G1 phase at 10 uM after 24 hrs by flow cytometry analysis; format: functional
[62] = tested on: A549; assay: Cytotoxicity against human A549 cells; format: functional
[63] = tested on: SF-268; assay: Cytotoxicity against human SF268 cells; format: functional
[64] = tested on: K562; assay: Cell cycle arrest in human K562 cells assessed as accumulation in G2/M phase at 20 uM after 24 hrs by flow cytometry analysis; format: functional
[65] = read-out: LC50 (the source's name)

## C(#Cc1ccccc1C#Cc1ccccn1)c1ccc(OCCCCCCOc2ccc(C#Cc3ccccc3C#Cc3ccccn3)cc2)cc1
[1]
  GI50: 0.27 µM
[1]; [65]
  CC50: 18.4 µM
[2]
  GI50: 2.67 µM
[2]; [65]
  CC50: 23.5 µM
[3]
  GI50: 8.18 µM
[3]; [65]
  CC50: 30.9 µM
[4]
  GI50: 7.05 µM
[4]; [65]
  CC50: 42 µM
[5]
  Activity: 8.77%
[6]
  Activity: 52.1%
[7]
  GI50: 0.62 µM
[7]; [65]
  CC50: > 50 µM
[8]
  Activity: Active
[9]
  GI50: 8.51 µM
[9]; [65]
  CC50: > 50 µM
[10]
  GI50: 1.91 µM
[10]; [65]
  CC50: 23.4 µM
[11]
  GI50: 3.56 µM
[11]; [65]
  CC50: 23.4 µM
[12]
  Activity: 23%
[13]
  Activity: 59.7%
[14]
  Activity: Active
[15]
  GI50: 6.53 µM
[15]; [65]
  CC50: 30.3 µM
[16]
  GI50: 4.33 µM
[16]; [65]
  CC50: 22.9 µM
[17]
  GI50: 7.97 µM
[17]; [65]
  CC50: > 50 µM
[18]
  GI50: 0.47 µM
[18]; [65]
  CC50: 16.4 µM
[19]
  GI50: 0.09 µM
[19]; [65]
  CC50: 2.7 µM
[20]
  GI50: 8.69 µM
[20]; [65]
  CC50: > 50 µM
[21]
  GI50: 1.38 µM
[21]; [65]
  CC50: 20.8 µM
[22]
  GI50: 2.14 µM
[22]; [65]
  CC50: 21.3 µM
[23]
  Activity: 8.57%
[24]
  GI50: 1.34 µM
[24]; [65]
  CC50: 19.6 µM
[25]
  Activity: 13.7%
[26]
  Activity: 24.9%
[27]
  GI50: 1.38 µM
[27]; [65]
  CC50: 22.8 µM
[28]
  GI50: 2.87 µM
[28]; [65]
  CC50: 38.4 µM
[29]
  GI50: 0.37 µM
[29]; [65]
  CC50: 28 µM
[30]
  GI50: 7.65 µM
[30]; [65]
  CC50: 27.9 µM
[31]
  GI50: 2.38 µM
[31]; [65]
  CC50: 21.3 µM
[32]
  GI50: 0.04 µM
[32]; [65]
  CC50: > 50 µM
[33]
  Activity: 35.8%
[34]
  GI50: 2.35 µM
[34]; [65]
  CC50: > 50 µM
[35]
  GI50: 6.14 µM
[35]; [65]
  CC50: 24.9 µM
[36]
  GI50: 1.54 µM
[36]; [65]
  CC50: 21.7 µM
[37]
  GI50: 7.11 µM
[37]; [65]
  CC50: 31.4 µM
[38]
  GI50: 4.46 µM
[38]; [65]
  CC50: 29.2 µM
[39]
  GI50: 7.47 µM
[39]; [65]
  CC50: 41.6 µM
[40]
  GI50: 2.3 µM
[40]; [65]
  CC50: > 50 µM
[41]
  GI50: 7.21 µM
[41]; [65]
  CC50: 26.9 µM
[42]
  GI50: 2.78 µM
[42]; [65]
  CC50: 22 µM
[43]
  GI50: 4 µM
[43]; [65]
  CC50: 22.7 µM
[44]
  GI50: 5.42 µM
[44]; [65]
  CC50: 23.8 µM
[45]
  Activity: 15.54%
[46]
  GI50: 6.31 µM
[46]; [65]
  CC50: 38.8 µM
[47]
  GI50: 3.45 µM
[47]; [65]
  CC50: 22.7 µM
[48]
  GI50: 6 µM
[48]; [65]
  CC50: 26.2 µM
[49]
  GI50: 1.24 µM
[49]; [65]
  CC50: 15.8 µM
[50]
  Activity: 49.2%
[51]
  GI50: 5.63 µM
[51]; [65]
  CC50: 24.1 µM
[52]
  GI50: 1.69 µM
[52]; [65]
  CC50: 18.7 µM
[53]
  GI50: 6.55 µM
[53]; [65]
  CC50: 32.7 µM
[54]
  GI50: 5.73 µM
[54]; [65]
  CC50: 24.3 µM
[55]
  GI50: 7.89 µM
[55]; [65]
  CC50: 27 µM
[56]
  GI50: 2.3 µM
[56]; [65]
  CC50: 20.5 µM
[57]
  GI50: 1.91 µM
[57]; [65]
  CC50: 21.8 µM
[58]
  GI50: 5.13 µM
[58]; [65]
  CC50: 31.3 µM
[59]
  GI50: 7.45 µM
[59]; [65]
  CC50: > 50 µM
[60]
  GI50: 5.41 µM
[60]; [65]
  CC50: 34.6 µM
[61]
  Activity: 15%
[62]
  GI50: 6.41 µM
[62]; [65]
  CC50: 43.2 µM
[63]
  GI50: 3.63 µM
[63]; [65]
  CC50: 22.7 µM
[64]
  Activity: 26.6%

## COc1cc2c(c(OC)c1OC)-c1ccc(OC)c(=O)cc1[C@@H](NC(C)=O)CC2 [COLCHICINE]
[23]
  Activity: 14.59%
[33]
  Activity: 74.6%
[50]
  Activity: 16.6%
[61]
  Activity: 8.8%
